Results from ChEMBL document CHEMBL1201862, “PubChem BioAssay data set” (2004).
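Step 1: Grow cells in 96-well plates. Step 2: Expose to compound for 48 hours at 5 concentrations. Step 3: Interpolate endpoints linearly; if unreached, use highest concentration. GI50 = concentration required for 50% inhibition of growth.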 Activity calls are given as the source filed them. Rule as the data show it: active = GI50 up to about 1.1 µM and inactive = higher.

What was measured:
Experiment in all cases: NCI tumour cell line growth inhibition, 48 h
CAKI-1 = system: CAKI-1
HL-60 = system: HL-60
HOP-62 = system: HOP-62
LOX IMVI = system: LOX IMVI
M14 = system: M14
M19-MEL = system: M19-MEL
NCI-H460 = system: NCI-H460
NCI-H522 = system: NCI-H522
OVCAR-5 = system: OVCAR-5
RXF 393 = system: RXF 393
SF-295 = system: SF-295
SW-620 = system: SW-620
U-251 = system: U-251
UO-31 = system: UO-31
IGROV-1 = system: IGROV-1
K562 = system: K562

Structure (SMILES) | GI50 (CAKI-1) | GI50 (HL-60) | GI50 (HOP-62) | GI50 (LOX IMVI) | GI50 (M14) | GI50 (M19-MEL) | GI50 (NCI-H460) | GI50 (NCI-H522) | GI50 (OVCAR-5) | GI50 (RXF 393) | GI50 (SF-295) | GI50 (SW-620) | GI50 (U-251) | GI50 (UO-31) | GI50 (IGROV-1) | GI50 (K562)
CCCCCCCCCCC/C(=N/O)c1ccc(O)c2ncccc12 | 3.16 µM (inactive) | 0.19 µM (active) | 4.26 µM (inactive) | 2.37 µM (inactive) | 1.76 µM (inactive) | 2.11 µM (inactive) | 3.65 µM (inactive) | 2.31 µM (inactive) | 3.15 µM (inactive) | 7.67 µM (inactive) | 2.71 µM (inactive) | 3.86 µM (inactive) | 4.48 µM (inactive) | 2.8 µM (inactive) | – | –
O=C1Nc2ccc(Br)cc2/C1=N/Nc1ccc([N+](=O)[O-])cc1 | 22.8 µM (inactive) | 12.6 µM (inactive) | 18.9 µM (inactive) | 21 µM (inactive) | 23.6 µM (inactive) | 17.1 µM (inactive) | 17.4 µM (inactive) | 31.3 µM (inactive) | – | 19.5 µM (inactive) | 11.6 µM (inactive) | 26.4 µM (inactive) | 18.7 µM (inactive) | 30.1 µM (inactive) | 38.8 µM (inactive) | 19.6 µM (inactive)
O=C1CNNC(Cn2nc(-c3ccccc3)c3ccccc3c2=O)=N1 | – | > 100 µM (inactive) | > 100 µM (inactive) | – | > 100 µM (inactive) | > 100 µM (inactive) | > 100 µM (inactive) | > 100 µM (inactive) | > 100 µM (inactive) | – | > 100 µM (inactive) | > 100 µM (inactive) | > 100 µM (inactive) | > 100 µM (inactive) | > 100 µM (inactive) | > 100 µM (inactive)
O=C1c2ccccc2C2(O)Oc3cccc(O)c3C12O (configuration not stated) | > 100 µM (inactive) | > 100 µM (inactive) | > 100 µM (inactive) | > 100 µM (inactive) | > 100 µM (inactive) | > 100 µM (inactive) | > 100 µM (inactive) | > 100 µM (inactive) | > 100 µM (inactive) | – | > 100 µM (inactive) | > 100 µM (inactive) | > 100 µM (inactive) | > 100 µM (inactive) | > 100 µM (inactive) | > 100 µM (inactive)
COC(=O)CC(=O)C[P+](c1ccccc1)(c1ccccc1)c1ccccc1 | > 218 µM (inactive) | 48.9 µM (inactive) | > 218 µM (inactive) | > 218 µM (inactive) | – | 209 µM (inactive) | 148 µM (inactive) | 37.7 µM (inactive) | – | > 218 µM (inactive) | 116 µM (inactive) | 121 µM (inactive) | > 218 µM (inactive) | – | > 218 µM (inactive) | 68.5 µM (inactive)
COc1ccc2oc(C(=O)O)c3c2c1CCC3CCC(=O)O (configuration not stated) | – | > 100 µM (inactive) | – | > 100 µM (inactive) | – | > 100 µM (inactive) | > 100 µM (inactive) | > 100 µM (inactive) | > 100 µM (inactive) | > 100 µM (inactive) | > 100 µM (inactive) | > 100 µM (inactive) | > 100 µM (inactive) | > 100 µM (inactive) | > 100 µM (inactive) | > 100 µM (inactive)
COc1ccc2nc3cc(Cl)ccc3c(NCCC(=O)OCC(O)C(O)C(O[C@H](C)C(=O)NC(C)C(=O)NC(CCC(N)=O)C(=O)OCc3ccccc3)C(C=O)NC(C)=O)c2c1 (some centres not stated) | 20.2 µM (inactive) | 25.1 µM (inactive) | 16.1 µM (inactive) | – | 19.5 µM (inactive) | 18 µM (inactive) | 16.2 µM (inactive) | 14.5 µM (inactive) | 23.8 µM (inactive) | – | 18.2 µM (inactive) | 15 µM (inactive) | 18.2 µM (inactive) | 20.5 µM (inactive) | 16 µM (inactive) | 14 µM (inactive)
O=C(Nc1cc(Cl)c(Cl)cc1Cl)C(=O)C(C(=O)c1ccc2ccccc2c1)C1OC(=O)c2ccccc21 (configuration not stated) | > 10 µM (inactive) | 13.2 µM (inactive) | 16.1 µM (inactive) | 15.5 µM (inactive) | 21.8 µM (inactive) | 13.6 µM (inactive) | 10.4 µM (inactive) | 12 µM (inactive) | 16.5 µM (inactive) | 3.95 µM (inactive) | 6.59 µM (inactive) | 10.8 µM (inactive) | 4.47 µM (inactive) | 18 µM (inactive) | 16.3 µM (inactive) | –
CCOC(=O)C1Nc2ccccc2[C@H]2OCC[C@@H]12 (some centres not stated) | > 100 µM (inactive) | > 100 µM (inactive) | > 100 µM (inactive) | > 100 µM (inactive) | > 100 µM (inactive) | > 100 µM (inactive) | > 100 µM (inactive) | > 100 µM (inactive) | > 100 µM (inactive) | > 100 µM (inactive) | > 100 µM (inactive) | > 100 µM (inactive) | > 100 µM (inactive) | – | > 100 µM (inactive) | > 100 µM (inactive)
